Measured values as given in patent US8809631B2, “Screening method for selecting plants that show reduced wound-induced surface discolouration and plant and plant parts thus obtained” (Rijk Zwaan Zaadteelt en Zaadhandel B.V., priority 2007, dated 2014).
“Also recorded” adds a separate entry of the source.

How the values were obtained:
[1] = treatment of formed dye with reducing agent after the wound response was completed; design: species or system lettuce; settings: added after the wound response was completed
Experimental: As L-cysteine is known to react with o-quinones, which are PPO products, by converting them back into colourless diphenols, the effects of L-cysteine on the pink dye coming from lettuce leaf discs was determined. In parallel the effect of L-cysteine was determined on the melanin formation upon incubation with L-DOPA. Leaf discs were taken and incubated according to the procedures described above. After the wound response was completed, a concentration series of L-cysteine was added to the leaf disc and the change in colour was monitored.

lettuce leaf discs = assay: leaf disc pinking assay (discs between wetted filter papers, 5° C., 7 days); type: cell-based; settings: for effect on output signal of the screen (brown or pink discolouration of the wound surface): FIG. 1 legend; for concentration at which the pink discolouration was completely inhibited: applied during the assay, 5° C., 7 days; for concentration at which the pink discolouration was completely inhibited / effect on pink discolouration (formation of the pink dye): lettuce leaf discs; for effect on pink discolouration (formation of the pink dye): applied during the reaction
Experimental: One embodiment of this invention is based on the surprising finding that when discs from leaves, in particular lettuce leaves, are taken and incubated between wetted filter papers at 5° C., after approximately 4 days the formation of a pink dye at the edges of the leaf discs becomes apparent. Suitable filter paper is filter paper type 1450 CV, Ref no. 10 313 281 from Schleier & Schuell, Microscience GmbH, Dassel, Germany. Upon further incubation, the signal intensifies and after approximately one week the maximum intensity has been reached. The formation of the pink dye occurs specifically at wound surfaces.
A phenotypic assay was developed in which leaf discolouration of lettuce induced by wounding can readily be assessed. This approach allows young plant screening for discolouration. Leaf discs of 5 mm diameter were taken from young or mature plants and placed between wetted filter papers in a tray. The system was incubated at 5° C. for 7 days. During the incubation a pink dye developed at the wound site of the leaf disc which became clearly visible as a printed circle on the filter paper (FIG. 2).

lettuce PPO = assay: L-DOPA leaf disc assay (conversion of L-DOPA into melanin); type: cell-based
Experimental: In addition to assays which address wound-induced discolouration in a broad sense, the method according to this invention also allows to screen in a more specific manner for mutants which have a reduced PPO activity. A phenotypic assay which is indicative for PPO activity was developed by using leaf discs which were incubated in the presence of 1.5 mM L-DOPA. As a black discolouration became apparent it can be concluded that L-DOPA can readily be converted by the polyphenol oxidising system at the wound surface of lettuce leaves into a black pigment called melanine. L-DOPA is converted by PPO into the reactive L-DOPA-quinone which is converted non-enzymatically via dopachrome and indol quinone into the black melanin.

[2] = tested on: field-grown lettuce plant; assay: L-cysteine treatment of leaf discs from field-grown lettuce showing pinking; settings: 1 mM L-cysteine, approximately 30 minutes, room temperature
Experimental: This is typically observed when plants have been stressed, for example by conditions of severe water logging. The leaf was used to prepare leaf discs which were incubated immediately by 1 mM L-cysteine.

[3] = tested on: lettuce outer leaf midrib tissue discs; assay: midrib disc browning assay (wetted filter paper, 16° C.); type: cell-based; settings: 10 mM L-cysteine, approximately 72 hours
Experimental: Lettuce plants were grown to maturity and parts of outer leaves were taken by cutting discs from the rib tissue. The discs were incubated on wetted filter paper at 16° C. After approximately 72 hours, the wound surface had turned brown.

| Compound | effect on the pink dye already formed by lettuce leaf discs [1] | effect on output signal of the screen (brown or pink discolouration of the wound surface) (lettuce leaf discs) | concentration at which the pink discolouration was completely inhibited (lettuce leaf discs) | effect on pink discolouration (formation of the pink dye) (lettuce leaf discs) | also measured |
| --- | --- | --- | --- | --- | --- |
| N[C@@H](CCC(=O)N[C@@H](CS)C(=O)NCC(=O)O)C(=O)O [glutathion] | convert the pink dye into a colourless compound |  |  |  |  |
| O=CC=Cc1ccccc1 [cinnamaldehyde] |  | completely inhibited | ≥ 0.01% | formation of the pink dye was inhibited |  |
| CC(C)C[C@H](N)C(=O)O [L-leucine] |  |  |  | did not show any effect |  |
| O=C1O[C@H]([C@@H](O)CO)C(O)=C1O [ascorbic acid] | convert the pink dye into a colourless compound |  |  |  |  |
| N[C@@H](CS)C(=O)O [L-cysteine] | converted into a colourless compound; also recorded: converting the pink dye back into a colourless compound | completely inhibited | ≥ 0.001% | strongly suppressed the formation of the pink dye | effect on black melanin already formed in the L-DOPA assay [1]: not affected; effect on black discolouration (melanin formation from L-DOPA) (lettuce PPO; applied simultaneously with L-DOPA (1 mM L-cysteine elsewhere in the source)): completely inhibited; also recorded: can be inhibited; concentration at which L-DOPA discolouration was completely inhibited (lettuce PPO; applied simultaneously with L-DOPA, lettuce leaf discs): ≥ 1 mM; effect on pink discolouration of field-grown lettuce leaf [2]: the pink discolouration is also eliminated; also recorded: the pink discolouration disappeared; effect on browning response of wound surface [3]: completely be inhibited; also recorded: the browning response was inhibited |
| C[C@H](N)C(=O)O [L-alanine] |  |  |  | did not show any effect |  |
